Data from publication PMC5987058, “Therapeutic Potential of a Scorpion Venom-Derived Antimicrobial Peptide and Its Homologs Against Antibiotic-Resistant Gram-Positive Bacteria” (Frontiers in Microbiology, 2018).
Ends that are not written are not given here.

Columns and labels:
S. aureus AB94004 [1] = test: Competition assay with LPS or LTA (MIC); type: cell-based, Staphylococcus aureus; conditions: 30 min, n = 3; for MIC, peptide treated with LPS 1: 1 mg/mL peptide + equal volume 5 mg/mL LPS from E. coli; for MIC, peptide treated with LTA: 1 mg/mL peptide + equal volume 5 mg/mL LTA from S. aureus; for MIC, peptide treated with LPS 1+LTA: peptide incubated with LPS 1 and LTA
Protocol: 1 mg/mL of peptides were incubated with an equal volume of 5 mg/mL of the lipopolysaccharide (LPS, Sigma-Aldrich: L3012/L8643) or lipoteichoic acid (LTA, Sigma-Aldrich: L2515) for 30 min. The MICs of peptides treated with LPS or LTA against S. aureus AB94004 were subsequently measured.

MRSA P1374 = test: MIC, broth microdilution; type: cell-based, Staphylococcus aureus; conditions: methicillin-resistant clinical isolate, LB medium, 10^5–10^6 CFU/mL, 16–18 h at 37°C, triplicate
Protocol: (§1) The antimicrobial activity was determined via a broth microdilution assay according to the procedure recommended by the Clinical and Laboratory Standards Institute with some modifications ([Hou et al., 2011]; [Li et al., 2016]). Bacteria were cultured in Luria-Bertani (LB) broth to OD600 = 0.6 at 37°C, then diluted to 10^5–10^6 CFU/mL in LB medium. Peptides were serially double diluted to a gradient concentration range from 48.3 to 1.5 μM in physiological saline. Eighty microliters of the bacterial suspension and 20 μL of diluted peptide at varying concentrations were added to 96-well plates, and then incubated for 16–18 h at 37°C with continuous shaking at 250 rpm. The antimicrobial activity of ampicillin and kanamycin were also tested as positive controls. Experiments were performed in triplicate. The minimum inhibitory concentration (MIC) was determined as the lowest peptide concentration at which no bacterial growth was observed.

PRSA P1389 = test: MIC, broth microdilution; type: cell-based, Staphylococcus aureus; conditions: penicillin-resistant clinical isolate, LB medium, 10^5–10^6 CFU/mL, 16–18 h at 37°C, triplicate
Protocol: as §1

MRSA P1381 = test: MIC, broth microdilution; type: cell-based, Staphylococcus aureus; conditions: methicillin-resistant clinical isolate, LB medium, 10^5–10^6 CFU/mL, 16–18 h at 37°C, triplicate
Protocol: as §1

[2] = tested on: Staphylococcus epidermidis AB208188; test: MIC, broth microdilution; type: cell-based; conditions: LB medium, 10^5–10^6 CFU/mL, 16–18 h at 37°C, triplicate
Protocol: as §1

[3] = tested on: Staphylococcus aureus AB208193; test: MIC, broth microdilution; type: cell-based; conditions: LB medium, 10^5–10^6 CFU/mL, 16–18 h at 37°C, triplicate
Protocol: as §1

Escherichia coli AB94012 = test: MIC, broth microdilution; type: cell-based; conditions: LB medium, 10^5–10^6 CFU/mL, 16–18 h at 37°C, triplicate
Protocol: as §1

[4] = tested on: Staphylococcus aureus ATCC6538; test: MIC, broth microdilution; type: cell-based; conditions: LB medium, 10^5–10^6 CFU/mL, 16–18 h at 37°C, triplicate
Protocol: as §1

[5] = tested on: Staphylococcus epidermidis AB208187; test: MIC, broth microdilution; type: cell-based; conditions: LB medium, 10^5–10^6 CFU/mL, 16–18 h at 37°C, triplicate
Protocol: as §1

[6] = tested on: Micrococcus luteus AB93113; test: MIC, broth microdilution; type: cell-based; conditions: LB medium, 10^5–10^6 CFU/mL, 16–18 h at 37°C, triplicate
Protocol: as §1

[7] = tested on: Escherichia coli ATCC25922; test: MIC, broth microdilution; type: cell-based; conditions: LB medium, 10^5–10^6 CFU/mL, 16–18 h at 37°C, triplicate
Protocol: as §1

[8] = tested on: Bacillus subtilis AB91021; test: MIC, broth microdilution; type: cell-based; conditions: LB medium, 10^5–10^6 CFU/mL, 16–18 h at 37°C, triplicate
Protocol: as §1

[9] = tested on: Pseudomonas aeruginosa ATCC9027; test: MIC, broth microdilution; type: cell-based; conditions: LB medium, 10^5–10^6 CFU/mL, 16–18 h at 37°C, triplicate
Protocol: as §1

[10] = tested on: Staphylococcus aureus ATCC25923; test: MIC, broth microdilution; type: cell-based; conditions: LB medium, 10^5–10^6 CFU/mL, 16–18 h at 37°C, triplicate
Protocol: as §1

[11] = tested on: Bacillus thuringiensis AB92037; test: MIC, broth microdilution; type: cell-based; conditions: LB medium, 10^5–10^6 CFU/mL, 16–18 h at 37°C, triplicate
Protocol: as §1

[12] = tested on: Staphylococcus aureus AB94004; test: MIC, broth microdilution; type: cell-based; conditions: legend of Figure 6
Protocol: as §1

S. aureus AB94004 [13] = test: SYTOX green fluorescence measurement (membrane integrity); type: cell-based, Staphylococcus aureus; conditions: positive control; 5 μM SYTOX green; n = 3
Protocol: S. aureus AB94004 were cultured to exponential phase (ca. 10^7 CFU/mL), centrifuged and suspended in physiological saline. Then the fluorescence dye SYTOX green (Invitrogen) was added at a final concentration of 5 μM. After incubation for 10 min, 50 μL bacterial culture and equal volume of peptides serially diluted in physiological saline at final concentrations of 1 × MIC, 2 × MIC, and 4 × MIC were added in a Greiner 96-well flat-bottom black plate. Physiological saline and MSI 78 were used as negative and positive controls. Fluorescence was measured over 30 min at the excitation and emission wavelengths of 488 and 525 nm, respectively.

Substance | MIC, peptide treated with LPS 1 (S. aureus AB94004 [1]) | MIC, peptide treated with LTA (S. aureus AB94004 [1]) | MIC, peptide treated with LPS 1+LTA (S. aureus AB94004 [1]) | MIC (MRSA P1374) | MIC (PRSA P1389) | MIC (MRSA P1381) | MIC [2] | MIC [3] | MIC (Escherichia coli AB94012) | MIC [4] | MIC [5] | MIC [6] | MIC [7] | MIC [8] | MIC [9] | MIC [10] | MIC [11] | MIC, peptide treated with LPS 2 (S. aureus AB94004 [1]; 1 mg/mL peptide + equal volume 5 mg/mL LPS from P. aeruginosa) | MIC of control substances [12] | SYTOX green fluorescence (S. aureus AB94004 [13])
FFGALFKLATKIIPSLFR-NH2 [Megicin-18] | 3 µM | 3 µM | 3 µM | 3.0 µM | 1.5 µM | 3.0 µM | 1.5 µM | 3.0 µM | >48.3 µM | 1.5 µM | 1.5 µM | >48.3 µM | 12.1 µM | 3.0 µM | 12.1 µM | 3.0 µM | 1.5 µM | – | – | –
FFGHLFKLATKIIPSLFQ-NH2 [Meucin-18] | – | – | – | 3.0 µM | 3.0 µM | 1.5 µM | 1.5 µM | 3.0 µM | 23.7 µM | 1.5 µM | 3.0 µM | 47.5 µM | 11.9 µM | 3.0 µM | 11.9 µM | 3.0 µM | 3.0 µM | – | – | –
FFGHLFKLATKIIPSLFR-NH2 [Marcin-18] | 2.9 µM | 2.9 µM | 2.9 µM | 2.9 µM | 2.9 µM | 1.5 µM | 2.9 µM | 2.9 µM | 11.7 µM | 1.5 µM | 2.9 µM | 23.4 µM | 5.9 µM | 2.9 µM | 5.9 µM | 2.9 µM | 2.9 µM | 2.9 µM | – | –
GIGKFLKKAKKFGKAFVKILKK-NH2 (C-terminus assumed) [MSI 78] | – | – | – | – | – | – | – | – | – | – | – | – | – | – | – | – | – | – | 2.5 µM | stable increase
